“And” between values parts separate entries of the source, which are not always exact repeats. Identical values can stand only once. “Also recorded” adds a separate entry of the source. Blank lines part the entries; values can stand above or below the compound they belong to.
How the values were obtained:
TRAP5a [1] = molecular target: T1, TRAP5a (Homo sapiens, UniProt P13686); assay: TRAP5 capture immunoassay, specific activity with each substrate (Example 3); type: biochemical; conditions: for TRAP5 Specific Activity 5A: serum-derived TRAP5a, pNPP at pH 6.1, PTMP and TTMP at pH 7.0
T1 construct: Serum-derived TRAP5a and TRAP5b were separated by ion exchange chromatography; from tissue; host or cells: human serum
T1 sequence (P13686 22-325): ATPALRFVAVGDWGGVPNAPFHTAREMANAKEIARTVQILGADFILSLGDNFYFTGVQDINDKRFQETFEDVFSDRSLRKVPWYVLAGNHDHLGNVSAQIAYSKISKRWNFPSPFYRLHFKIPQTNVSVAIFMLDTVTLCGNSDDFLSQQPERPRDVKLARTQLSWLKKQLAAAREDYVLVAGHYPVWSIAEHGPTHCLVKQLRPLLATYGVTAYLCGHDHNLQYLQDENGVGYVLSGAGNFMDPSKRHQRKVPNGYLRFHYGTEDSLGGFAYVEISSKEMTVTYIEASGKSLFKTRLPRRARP
Protocol: (§1) Microtitre plates (Nunc Maxisorp) were coated with mouse anti-TRAP5 (clone O1A), from a solution of a 3.0 mg/L purified Mab IgG in 10 mM phosphate buffered saline (PBS), 100 μL per well and incubated overnight at room temperature. The coated plates were washed three times with 10 mM phosphate buffered saline, 0.05% Tween 20. A stabilising reagent of 5% lactose, 0.5% BSA was added, 250 μL per well, incubated for at least 10 minutes, then the liquid aspirated. The coated plates were dried overnight at 35° C. then stored at 2-8° C. protected from moisture.
(§2) Serum-derived TRAP5a and TRAP5b were separated by ion exchange chromatography using a modification of the procedure described by Lam et al, Clin. Chem. 24(7):1105-1108, 1978. 100-500 mL human serum was adjusted to around pH 5.0 with 100% acetic acid, and optionally diluted with an equal volume of 10 mM sodium phosphate buffer, pH 4.9. After clarification by centrifugation and filtering, the acidified serum was applied to a 1 cm×100-150 cm column of CM-Sepharose (Sigma, part No CCF 100) and the column was developed with a linear NaCl gradient, from 150-800 mM. Fractions containing TRAP5a and TRAP5b activity were identified using a non-capture assay essentially as described by Lam et al Clin. Chem. 24(7):1105-1108, 1978. In some instances the fractions were further assayed for TRAP5 by the immunoassays described below. Fractions containing peak levels of TRAP5a or TRAP5b were separately pooled for further analysis.
(§3) The TRAP5 protein concentration in the TRAP5a and TRAP5b preparations was determined by a sandwich immunoassay. 100-200 μL sample per well was applied to O1A-coated microtitre plates and incubated overnight at 4° C. The plate was washed three times with 10 mM phosphate buffered saline, 0.05% Tween 20, and 100-200 μL of a solution containing the rabbit anti-TRAP5 antibody at a dilution of 1:4000 was added per well. […] The reactions were stopped by the addition of 100 μL 0.5M HCl and the absorbance at 450 nm was measured. TRAP5 protein concentrations were calculated by reference to a calibration curve prepared from baculovirus-derived recombinant human TRAP5.
(§4) To test for activity towards PTMP, 100 μL of a solution containing 6 mg/mL PTMP dissolved in 125 mM MOPS buffer, pH 7.0 was added per well and incubated for 0-40 min at 37° C. The reactions were stopped at the times indicated by the addition of 50 μL per well of 1M glycine/NaOH, pH11 and the absorbance at […] was measured. […] The reactions were stopped at the times indicated by the addition of 50 μL per well of 0.25 M NaOH and the absorbance at […] was measured.
TRAP5a and TRAP5b preparations were prepared and quantified with respect to TRAP5 mass as described in Example 3. […]

TRAP5b [2] = assay: as above; type: biochemical, human; conditions: for Ratio 5B:5A of specific activity / TRAP5 Specific Activity 5B: pNPP at pH 6.1, PTMP and TTMP at pH 7.0; for specificity for TRAP5b over TRAP5a compared with the commercial pNPP based assay: relative to pNPP-based assay; for TRAP5 Specific Activity 5B: serum-derived TRAP5b
Protocol: as §1, §2
The TRAP5 protein concentration in the TRAP5a and TRAP5b preparations was determined by a sandwich immunoassay. 100-200 μL sample per well was applied to O1A-coated microtitre plates and incubated overnight at 4° C. The plate was washed three times with 10 mM phosphate buffered saline, 0.05% Tween 20, and 100-200 μL of a solution containing the rabbit anti-TRAP5 antibody at a dilution of 1:4000 was added per well. After 60 min incubation at ambient temperature the plate was washed as above and 100-200 μL of a solution containing anti-rabbit IgG-Horseradish peroxidase conjugate at a dilution of 1:5000 was added and incubated for 30 min at ambient temperature. After further washing as described above […] of TMB (BioFx Inc, part TMBW-0100-01) was added and incubated for 30 min at ambient temperature. The reactions were stopped by the addition of 100 μL 0.5M HCl and the absorbance at 450 nm was measured. TRAP5 protein concentrations were calculated by reference to a calibration curve prepared from baculovirus-derived recombinant human TRAP5.
(§5) To test for activity towards PTMP, 100 μL of a solution containing 6 mg/mL PTMP dissolved in 125 mM MOPS buffer, pH 7.0 was added per well and incubated for 0-40 min at 37° C. The reactions were stopped at the times indicated by the addition of 50 μL per well of 1M glycine/NaOH, pH11 and the absorbance at […] was measured. To test for activity towards TTMP, 100 μL of a solution containing 5 mg/mL TTMP dissolved in 80 mM MOPS buffer, 10% ethanol, pH 7.0 was added per well and incubated for 0-40 min at 37° C. The reactions were stopped at the times indicated by the addition of 50 μL per well of 0.25 M NaOH and the absorbance at […] was measured.
TRAP5a and TRAP5b preparations were prepared and quantified with respect to TRAP5 mass as described in Example 3. A set of TRAP5 calibrators was prepared by incubating 225 μg baculovirus-derived recombinant human TRAP with 12 U chymotrypsin for 6 h at ambient temperature, preparing a series of dilutions from this material and assigning TRAP5 concentrations (in U/L) to these dilutions using the commercial TRAP5b immunoassay based on WO1999/050662. The TRAP5a and TRAP5b preparations were assayed by a commercial TRAP5b immunoassay based on WO1999/050662 which uses pNPP as substrate at pH 6.1 with the modification that the chymotrypsin-treated calibrators described above were substituted for those provided by the manufacturer. […]

TRAP5a [3] = molecular target: T1, TRAP5a; assay: Time course of substrate hydrolysis on O1A-coated plates (Example 1, FIG. 1); type: biochemical; conditions: serum-derived TRAP5a; neutral pH (7.0) in Example 1
Protocol: as §1, with “moisture. […]” for “moisture.”
The TRAP5 protein concentration in the TRAP5a and TRAP5b preparations was determined by a sandwich immunoassay. […] The reactions were stopped by the addition of 100 μL 0.5M HCl and the absorbance at 450 nm was measured. TRAP5 protein concentrations were calculated by reference to a calibration curve prepared from baculovirus-derived recombinant human TRAP5.
as §4

TRAP5b [4] = assay: as above; type: biochemical, human; conditions: for specific activity of TRAP5b relative to that of TRAP5a: pH 7.0, from FIG. 1; for hydrolysis of substrate by TRAP5b: serum-derived TRAP5b, neutral pH (7.0) in Example 1
Protocol: as §1, §2, §3, §4

TRAP5a [5] = molecular target: T1, TRAP5a; assay: pH vs activity profile (Example 2, FIG. 2); type: biochemical; conditions: substrate 6 mg/mL in MES or MOPS buffers
Protocol: (§6) Since TRAP5 is an acid phosphatase that normally is only active under acidic conditions, the relationship between TRAP5a and TRAP5b enzyme activity and substrate pH using PTMP as substrate over a range of pH values was investigated. The TRAP5 assays were performed essentially as described for Example 1, except that the PTMP substrate was dissolved at 6 mg/mL in a series of 100 mM MES or 100 mM MOPS buffers to give the pH values indicated.

TRAP5b [6] = assay: pH vs activity profile (Example 2, FIG. 2); type: biochemical, human; conditions: substrate 6 mg/mL in MES or MOPS buffers
Protocol: as §6

TRAP5a [7] = molecular target: T1, TRAP5a; assay: Assay of CM-Sepharose fractions of normal human serum with pNPP- and PTMP-based assays (Example 4, FIG. 3); type: biochemical
Source text: TRAP5a and TRAP5b from normal human serum were separated on a CM-Sepharose column and the fractions assessed for TRAP5b using the pNPP and PTMP-based assays described in Example 3.

TRAP5a [8] = molecular target: T1, TRAP5a; assay: Activity with phthalein monophosphate esters at 0.47 mg/mL, pH 7.4 (Example 8); type: biochemical; set-up: unit not given beside the values; conditions: 0.47 mg/mL in 100 mM MES pH7.4
Protocol: as §5
(§7) Where phthalein monophosphate esters were not available commercially, the monophosphate esters were prepared by the method of Bulbenko & Woodbridge (U.S. Pat. No. 4,045,290) by reaction of the appropriate phthalein compound (from Sigma-Aldrich) with phosphorus oxychloride (CAS 10025-87-3), followed by hydrolysis and purification. The monophosphate esters were further purified before use by HPLC chromatography to remove un-reacted phthalein dye. HPLC column 10 mm×150 mm ACE 5 C18 (Advance Chromatography Technologies, UK), load solvent composition, 30% methanol and 70% water containing 0.1% trifluoroacetic acid (TFA); product was eluted by a gradient from 30% methanol 0.1% TFA to 100% methanol 0.1% TFA at 3 mL/minute over 45 minutes.
(§8) Phthalein monophosphate esters prepared in Example 7 were diluted to 0.47 mg/mL in 100 mM MES pH7.4 buffer and applied to an assay as in Example 1.

TRAP5b [9] = assay: as above; type: biochemical, human; set-up: 5b Activity: unit not given here; conditions: 0.47 mg/mL in 100 mM MES pH7.4
Protocol: as §5, §7, §8

TRAP5b [10] = conditions: WO1999/050662 (pNPP), EP1598670 (2-chloro-4-nitrophenylphosphate); cited from earlier work

Structure (SMILES): O=C1OC(c2ccc(O)cc2)(c2ccc(OP(=O)(O)O)cc2)c2ccccc21 (centres unmarked) [PTMP, Phenolphthalein monophosphate]
TRAP5a detected, as share of the TRAP5a detected by the pNPP-based assay (TRAP5a [1]; from specific activities, PTMP pH 7.0 vs pNPP pH 6.1): 20%
TRAP5 Specific Activity 5A (TRAP5a [1]): 0.035 U/μg
Ratio 5B:5A of specific activity (TRAP5b [2]): 47.5
specificity for TRAP5b over TRAP5a compared with the commercial pNPP based assay (TRAP5b [2]): ~4.75 fold
TRAP5 Specific Activity 5B (TRAP5b [2]): 1.68 U/μg
hydrolysis of substrate by TRAP5a (TRAP5a [3]): readily hydrolyze; also recorded: hydrolised
specific activity of TRAP5b relative to that of TRAP5a (TRAP5b [4]): approximately 50 times
hydrolysis of substrate by TRAP5b (TRAP5b [4]): readily hydrolyze; also recorded: hydrolised
pH of maximal activity (pH optimum) of TRAP5a (TRAP5a [5]): ~6.0 pH
pH of maximal activity (pH optimum) of TRAP5b (TRAP5b [6]): 7.0 pH
TRAP5a detected, as share of the TRAP5a detected by the pNPP-based assay (TRAP5a [7]; peak TRAP5a fraction 53): 16%
5a Activity (TRAP5a [8]): 0.0110
5b Activity (TRAP5b [9]): 0.3664
Ratio of 5b:5a activity (TRAP5b [9]): 33.3

Structure (SMILES): O=P(O)(O)Oc1ccc(C2(c3ccc(O)cc3)OS(=O)(=O)c3ccccc32)cc1 (centres unmarked) [Phenol Red, Phenol Red monophosphate]
5a Activity (TRAP5a [8]): 0.0067
5b Activity (TRAP5b [9]): 0.3558
Ratio of 5b:5a activity (TRAP5b [9]): 53.1

TRAP5 Specific Activity 5A (TRAP5a [1]): 0.035 U/μg
Structure (SMILES): Cc1cc(O)c(C(C)C)cc1C1(c2cc(C(C)C)c(OP(=O)(O)O)cc2C)OC(=O)c2ccccc21 (centres unmarked) [TTMP, Thymolphthalein monophosphate]
Ratio 5B:5A of specific activity (TRAP5b [2]): 65.3
specificity for TRAP5b over TRAP5a compared with the commercial pNPP based assay (TRAP5b [2]): ~6.5 fold
TRAP5 Specific Activity 5B (TRAP5b [2]): 2.3 U/μg
hydrolysis of substrate by TRAP5a (TRAP5a [3]): readily hydrolyze; also recorded: hydrolised
specific activity of TRAP5b relative to that of TRAP5a (TRAP5b [4]): approximately 70 times
hydrolysis of substrate by TRAP5b (TRAP5b [4]): readily hydrolyze; also recorded: hydrolised

Structure (SMILES): O=[N+]([O-])c1ccc(OP(=O)(O)O)cc1 [pNPP, p-nitrophenyl phosphate, reference compound]
TRAP5 Specific Activity 5A (TRAP5a [1]): 0.177 U/μg
Ratio 5B:5A of specific activity (TRAP5b [2]): 9 and 9.04
TRAP5 Specific Activity 5B (TRAP5b [2]): 1.60 U/μg
share of the material measured as TRAP5b that is actually TRAP5a (TRAP5a [7]; normal human serum, CM-Sepharose fractions): around 40%
pH optimum of TRAP5b (TRAP5b [10]): ~5.9 pH

— patent US20110105349A1, “USE OF A MONOPHOSPHATE ESTER OF A PHTHALEIN COMPOUND AS A SUBSTRATE FOR TARTRATE-RESISTANT ACID PHOSPHATASE B5 (TRAP 5B)” (MUNODIAGNOSTIC SYSTEMS LIMITED, priority 2008, published 2011)
